# Patent US20230071840A1, “HETEROCYCLIC GLP-1 AGONISTS” (Gasherbrum Bio, Inc., priority 2020, published 2023)
# Like-named read-outs stand apart in the source and are kept apart here.
# Molecular target: GLP-1 Receptor (Homo sapiens, UniProt P43220)
# Test: GLP-1R agonist cAMP stimulation assay (HEK293/GLP1R/CRE-LUC cells, cAMP dynamic 2 kit)
# Assay type: cell-based
# Settings: HEK293/CRE-Luc cell line stably expressing the GLP-1 Receptor, 30 min incubation at 37° C.
# Protocol: Activation of GLP-1 receptor is known to stimulate cyclic AMP (cAMP) production in cells which indicates primary coupling to the Gas subunit of the G protein heterotrimeric complex.
# To optimize functional activity directed toward Gas coupling, a HEK293/CRE-Luc cell line developed by HDB stably expressing the GLP-1 Receptor was used. […] Seal the plate and incubate at 37° C. with 5% CO2 for 30 min.
# After incubation the cAMP assay signal was generated using cAMP dynamic 2 Kit (Cisbio). 5 μL cAMP-d2 working solution was added to each well, followed with 5 μL Anti-cAMP antibody-cryptate working solution added to each well using ThermoFisher Multidrop Combi. Incubate at room temperature for 1 hour protected from light.
# % Activity=[…]×(mean RLU of test sample−mean RLU of vehicle control)/(mean RLU of MAX control−mean RLU of vehicle control))
# [1] = read-out: GLP1R cAMP Stimulation DR: EC50
# [2] = read-out: GLP1R cAMP Stimulation DR: pEC50 (converted)
# GLP-1 Receptor, sequence (P43220 24-463, species assumed): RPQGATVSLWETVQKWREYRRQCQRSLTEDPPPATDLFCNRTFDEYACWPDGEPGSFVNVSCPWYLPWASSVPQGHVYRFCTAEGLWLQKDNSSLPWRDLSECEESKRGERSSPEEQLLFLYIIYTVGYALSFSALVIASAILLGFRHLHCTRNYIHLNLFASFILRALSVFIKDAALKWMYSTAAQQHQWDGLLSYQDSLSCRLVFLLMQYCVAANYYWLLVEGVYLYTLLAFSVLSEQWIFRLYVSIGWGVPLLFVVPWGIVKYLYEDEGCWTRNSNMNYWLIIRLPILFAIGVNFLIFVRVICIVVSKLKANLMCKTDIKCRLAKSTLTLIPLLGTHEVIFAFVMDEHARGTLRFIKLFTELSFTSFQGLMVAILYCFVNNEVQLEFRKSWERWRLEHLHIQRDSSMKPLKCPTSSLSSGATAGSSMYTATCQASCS
SMILES,EC50 [1] [nM],EC50 [2] [nM]
"O=C(O)c1ccc2nc(CN3CCC(Oc4nc(Cc5ccc(Cl)cc5F)ncc4F)CC3)n(C[C@@H]3CCO3)c2n1 [Compound 151a, (S)-2-((4-((2-(4-chloro-2-fluorobenzyl)-5-fluoropyrimidin-4-yl)oxy)piperidin-1-yl)methyl)-3-(oxetan-2-ylmethyl)-3H-imidazo[4,5-b]pyridine-5-carboxylic acid]",0.085,–
"O=C(O)c1ccc2nc(CN3CCC(Oc4cccc(Cc5ccc(Cl)cc5)c4F)CC3)n(C[C@@H]3CCO3)c2n1 [Compound 157a, 2-[(4-{3-[(4-chlorophenyl)methyl]-2-fluorophenoxy}piperidin-1-yl)methyl]-3-{[(2S)-oxetan-2-yl]methyl}-3H-imidazo[4,5-b]pyridine-5-carboxylic acid]",42,–
"O=C(O)c1ccc2nc(CN3CCC(Oc4cccc(Cc5ccc(Cl)cc5)c4Cl)CC3)n(C[C@@H]3CCO3)c2n1 [Compound 158a, 2-[(4-{2-chloro-3-[(4-chlorophenyl)methyl]phenoxy}piperidin-1-yl)methyl]-3-{[(2S)-oxetan-2-yl]methyl}-3H-imidazo[4,5-b]pyridine-5-carboxylic acid]",> 1000,–
"O=C(O)c1ccc2nc(CN3CCC(Oc4ccnc(Cc5ccc(Cl)cc5F)n4)CC3)n(C[C@@H]3CCO3)c2c1 [Compound 160a, 2-{[4-({2-[(4-chloro-2-fluorophenyl)methyl]pyrimidin-4-yl}oxy)piperidin-1-yl]methyl}-1-{[(2S)-oxetan-2-yl]methyl}-1H-1,3-benzodiazole-6-carboxylic acid]",0.12,–
"O=C(O)c1cnc2nc(CN3CCC(Oc4ccnc(Cc5ccc(Cl)cc5F)n4)CC3)n(C[C@@H]3CCO3)c2c1 [Compound 161a, 2-{[4-({2-[(4-chloro-2-fluorophenyl)methyl]pyrimidin-4-yl}oxy)piperidin-1-yl]methyl}-1-{[(2S)-oxetan-2-yl]methyl}-1H-imidazo[4,5-b]pyridine-6-carboxylic acid]",0.18,–
"N#CC1(Cn2c(CN3CCC(Oc4ccnc(Cc5ccc(Cl)cc5F)n4)CC3)nc3ccc(C(=O)O)cc32)CC1 [Compound 162, 2-{[4-({2-[(4-chloro-2-fluorophenyl)methyl]pyrimidin-4-yl}oxy)piperidin-1-yl]methyl}-1-[(1-cyanocyclopropyl)methyl]-1H-1,3-benzodiazole-6-carboxylic acid]",0.075,–
"O=C(O)c1ccc2nc(CN3CCC(Oc4ccnc(Cc5ccc(C(F)(F)F)cc5F)n4)CC3)n(C[C@@H]3CCO3)c2n1 [Compound 163a, 2-({4-[(2-{[2-fluoro-4-(trifluoromethyl)phenyl]methyl}pyrimidin-4-yl)oxy]piperidin-1-yl}methyl)-3-{[(2S)-oxetan-2-yl]methyl}-3H-imidazo[4,5-b]pyridine-5-carboxylic acid]",0.11,0.1
"O=C(O)c1ccc2nc(CN3CCC(Oc4ccnc(Cc5ccc(Cl)cc5C(F)(F)F)n4)CC3)n(C[C@@H]3CCO3)c2n1 [Compound 166a, 2-({4-[(2-{[4-chloro-2-(trifluoromethyl)phenyl]methyl}pyrimidin-4-yl)oxy]piperidin-1-yl}methyl)-3-{[(2S)-oxetan-2-yl]methyl}-3H-imidazo[4,5-b]pyridine-5-carboxylic acid]",1,–
"O=C(O)c1ccc2nc(CN3CCC(Oc4ccnc(Cc5ccc(Cl)cc5F)n4)C(F)(F)C3)n(C[C@@H]3CCO3)c2n1 (stereo partly drawn) [Compound 168a, 2-{[4-({2-[(4-chloro-2-fluorophenyl)methyl]pyrimidin-4-yl}oxy)-3,3-difluoropiperidin-1-yl]methyl}-3-{[(2S)-oxetan-2-yl]methyl}-3H-imidazo[4,5-b]pyridine-5-carboxylic acid]",1.2,–
"O=C(O)c1ccc2nc(CN3CCC(C(F)(F)c4cccc(Cc5ccc(Cl)cc5F)n4)CC3)n(C[C@@H]3CCO3)c2n1 [Compound 173a, 2-{[4-({6-[(4-chloro-2-fluorophenyl)methyl]pyridin-2-yl}difluoromethyl)piperidin-1-yl]methyl}-3-{[(2S)-oxetan-2-yl]methyl}-3H-imidazo[4,5-b]pyridine-5-carboxylic acid]",3.8,–
"O=C(O)c1ccc2nc(C[C@H]3CC[C@@H](Oc4cccc(Cc5ccc(Cl)cc5F)n4)CC3)n(C[C@@H]3CCO3)c2n1 [Compound 174a, 3-{[(2S)-oxetan-2-yl]methyl}-2-{[cis-4-({6-[(4-chloro-2-fluorophenyl)methyl]pyridin-2-yl}oxy)cyclohexyl]methyl}-3H-imidazo[4,5-b]pyridine-5-carboxylic acid]",29,–
"O=C(O)c1ccc2nc(C[C@H]3CC[C@H](Oc4cccc(Cc5ccc(Cl)cc5F)n4)CC3)n(C[C@@H]3CCO3)c2n1 [Compound 174b, 3-{[(2S)-oxetan-2-yl]methyl}-2-{[trans-4-({6-[(4-chloro-2-fluorophenyl)methyl]pyridin-2-yl}oxy)cyclohexyl]methyl}-3H-imidazo[4,5-b]pyridine-5-carboxylic acid]",0.14,–
"O=C(O)c1ccc2nc(C[C@H]3CC[C@@H](Oc4ccnc(Cc5ccc(Cl)cc5F)n4)CC3)n(C[C@@H]3CCO3)c2n1 [Compound 175a, 3-{[(2S)-oxetan-2-yl]methyl}-2-{[cis-4-({2-[(4-chloro-2-fluorophenyl)methyl]pyrimidin-4-yl}oxy)cyclohexyl]methyl}-3H-imidazo[4,5-b]pyridine-5-carboxylic acid]",230,–

# Second part, the compound after the results:
EC50 [1] [nM],EC50 [2] [nM],SMILES
5.6,–,"O=C(O)c1ccc2nc(CN3CCC(Oc4cccc(Cn5ccc(Cl)cc5=O)n4)CC3)n(C[C@@H]3CCO3)c2n1 [Compound 149a, 2-{[4-({6-[(4-chloro-2-oxo-1,2-dihydropyridin-1-yl)methyl]pyridin-2-yl}oxy)piperidin-1-yl]methyl}-3-{[(2S)-oxetan-2-yl]methyl}-3H-imidazo[4,5-b]pyridine-5-carboxylic acid]"
68,–,"O=C(O)c1ccc2nc(CN3CCC(Oc4ccc(F)c(Cc5ccc(Cl)cc5F)n4)CC3)n(C[C@@H]3CCO3)c2n1 [Compound 150a, (S)-2-((4-((6-(4-chloro-2-fluorobenzyl)-5-fluoropyridin-2-yl)oxy)piperidin-1-yl)methyl)-3-(oxetan-2-ylmethyl)-3H-imidazo[4,5-b]pyridine-5-carboxylic acid]"
0.038,–,"O=C(O)c1ccc2nc(CN3CCC(Oc4ccnc(Cc5ccc(Cl)cc5)n4)CC3)n(C[C@@H]3CCO3)c2n1 [Compound 152a, 2-{[4-({2-[(4-chlorophenyl)methyl]pyrimidin-4-yl}oxy)piperidin-1-yl]methyl}-3-{[(2S)-oxetan-2-yl]methyl}-3H-imidazo[4,5-b]pyridine-5-carboxylic acid]"
0.14,0.158,"O=C(O)c1ccc2nc(CN3CCC(Oc4cncc(Cc5ccc(Cl)cc5)n4)CC3)n(C[C@@H]3CCO3)c2n1 [Compound 153a, 2-{[4-({6-[(4-chlorophenyl)methyl]pyrazin-2-yl}oxy)piperidin-1-yl]methyl}-3-{[(2S)-oxetan-2-yl]methyl}-3H-imidazo[4,5-b]pyridine-5-carboxylic acid]"
24,–,"Cc1cc(Cc2ccc(Cl)cc2)nc(OC2CCN(Cc3nc4ccc(C(=O)O)nc4n3C[C@@H]3CCO3)CC2)c1 [Compound 154a, 2-{[4-({6-[(4-chlorophenyl)methyl]-4-methylpyridin-2-yl}oxy)piperidin-1-yl]methyl}-3-{[(2S)-oxetan-2-yl]methyl}-3H-imidazo[4,5-b]pyridine-5-carboxylic acid]"
3.8,–,"O=C(O)c1ccc2nc(CN3CCC(Oc4cc(Cl)cc(Cc5ccc(Cl)cc5)n4)CC3)n(C[C@@H]3CCO3)c2n1 [Compound 155a, 2-{[4-({4-chloro-6-[(4-chlorophenyl)methyl]pyridin-2-yl}oxy)piperidin-1-yl]methyl}-3-{[(2S)-oxetan-2-yl]methyl}-3H-imidazo[4,5-b]pyridine-5-carboxylic acid]"
40,–,"O=C(O)c1ccc2nc(CN3CCC(Oc4cc(C(F)(F)F)cc(Cc5ccc(Cl)cc5)n4)CC3)n(C[C@@H]3CCO3)c2n1 [Compound 156a, 2-{[4-({6-[(4-chlorophenyl)methyl]-4-(trifluoromethyl)pyridin-2-yl}oxy)piperidin-1-yl]methyl}-3-{[(2S)-oxetan-2-yl]methyl}-3H-imidazo[4,5-b]pyridine-5-carboxylic acid]"
2.3,–,"O=C(O)c1ccc2nc(CN3CCC(Oc4ccnc(Cc5ccc(Cl)cc5)c4)CC3)n(C[C@@H]3CCO3)c2n1 [Compound 159a, 2-{[4-({2-[(4-chlorophenyl)methyl]pyridin-4-yl}oxy)piperidin-1-yl]methyl}-3-{[(2S)-oxetan-2-yl]methyl}-3H-imidazo[4,5-b]pyridine-5-carboxylic acid]"
0.11,0.1,"O=C(O)c1ccc2nc(CN3CCC(Oc4ccnc(Cc5ccc(Cl)cc5Cl)n4)CC3)n(C[C@@H]3CCO3)c2n1 [Compound 164a, 2-{[4-({2-[(2,4-dichlorophenyl)methyl]pyrimidin-4-yl}oxy)piperidin-1-yl]methyl}-3-{[(2S)-oxetan-2-yl]methyl}-3H-imidazo[4,5-b]pyridine-5-carboxylic acid]"
0.13,–,"O=C(O)c1ccc2nc(CN3CCC(Oc4ccnc(Cc5ccc(Cl)c(Cl)c5)n4)CC3)n(C[C@@H]3CCO3)c2n1 [Compound 167a, 2-{[4-({2-[(3,4-dichlorophenyl)methyl]pyrimidin-4-yl}oxy)piperidin-1-yl]methyl}-3-{[(2S)-oxetan-2-yl]methyl}-3H-imidazo[4,5-b]pyridine-5-carboxylic acid]"
